{"source": "patent US20230013669A1", "about": "“Antibacterial Treatment Using a Cannabinoid and an Active Agent” (priority 2019, published 2023)", "assay_in_all_cases": "Synergy of cannabidiol with cell-wall disrupting agent (CBD MIC in combination, FICI)", "type_in_all_cases": "cell-based", "key": {"[1]": {"test_system": "Pseudomonas aeruginosa FADDI-PA067 (GN_177), Polymyxin resistant", "conditions": "for MIC: Pseudomonas aeruginosa", "protocol": "(§1) The compounds were stored short term at 4° C.\n(§2) Analysis was performed using Microsoft Excel."}, "[2]": {"test_system": "Escherichia coli HS71 (GN_110), CTX-M", "conditions": "for MIC: Escherichia coli", "protocol": "as §1, §2"}, "[3]": {"test_system": "Acinetobacter baumannii 03.021.1 (GN_038), Colistin resistant", "conditions": "for MIC: Acinetobacter baumannii", "protocol": "as §1, §2"}, "[4]": {"conditions": "Example 9, GN_038, listed as CBD"}}, "note": "Like-named read-outs stand apart in the source and are kept apart here.", "data": [{"smiles": "C=C(C)C1CCC(C)=CC1c1c(O)cc(CCCCC)cc1O", "note": "(centres unmarked) [Cannabidiol, 2-[3-methyl-6-(1-methylethenyl)-2-cyclohexen-1-yl]-5-pentyl-1,3-benzenediol]", "values": [{"measurement": "cannabidiol combined with Polymyxin B: synergy", "setting": "[1]; Example 8", "value": "synergy"}, {"measurement": "MIC", "setting": "[1]; read-out: CBD MIC with MCC_00636 at concentration 0.015625 μg/mL", "value": "> 256", "unit": "µg/mL"}, {"measurement": "MIC", "setting": "[1]; read-out: CBD MIC with MCC_00636 at concentration 0.03125 μg/mL", "value": "> 256", "unit": "µg/mL"}, {"measurement": "MIC", "setting": "[1]; read-out: CBD MIC with MCC_00636 at concentration 0.0625 μg/mL", "value": "> 256", "unit": "µg/mL"}, {"measurement": "MIC", "setting": "[1]; read-out: CBD MIC with MCC_00636 at concentration 0.25 μg/mL", "value": "> 256", "unit": "µg/mL"}, {"measurement": "MIC", "setting": "[1]; read-out: CBD MIC with MCC_00636 at concentration 0.5 μg/mL", "value": 4, "unit": "µg/mL"}, {"measurement": "MIC", "setting": "[1]; read-out: CBD MIC with MCC_00636 at concentration 1 μg/mL", "value": 0.5, "unit": "µg/mL"}, {"measurement": "MIC", "setting": "[1]; read-out: CBD MIC with MCC_00636 at concentration 2 μg/mL", "value": 0.000977, "unit": "µg/mL"}, {"measurement": "MIC", "setting": "[1]; read-out: CBD MIC with MCC_00636 at concentration 4 μg/mL", "value": 0.000977, "unit": "µg/mL"}, {"measurement": "MIC", "setting": "[1]; read-out: CBD MIC with MCC_00636 at concentration […]", "value": "> 256", "unit": "µg/mL"}, {"measurement": "MIC", "setting": "[2]; read-out: CBD MIC with MCC_09222 at concentration 2 μg/mL, Example 9, GN_110", "value": 4, "unit": "µg/mL"}, {"measurement": "MIC", "setting": "[2]; read-out: CBD MIC with MCC_09222 at concentration 4 μg/mL, Example 9, GN_110", "value": 1, "unit": "µg/mL"}, {"measurement": "MIC", "setting": "[2]; read-out: CBD MIC with MCC_09222 at concentration 8 μg/mL, Example 9, GN_110", "value": 1, "unit": "µg/mL"}, {"measurement": "MIC", "setting": "[2]; read-out: CBD MIC with MCC_09222 at concentration 16 μg/mL, Example 9, GN_110", "value": 0.5, "unit": "µg/mL"}, {"measurement": "MIC", "setting": "[2]; read-out: CBD MIC with MCC_09222 at concentration 32 μg/mL, Example 9, GN_110", "value": 0.000977, "unit": "µg/mL"}, {"measurement": "MIC", "setting": "[2]; read-out: CBD MIC with MCC_09222 at concentration 64 μg/mL, Example 9, GN_110", "value": 0.000977, "unit": "µg/mL"}, {"measurement": "MIC", "setting": "[2]; read-out: CBD MIC with MCC_09222 at concentration 128 μg/mL, Example 9, GN_110", "value": 0.000977, "unit": "µg/mL"}, {"measurement": "cannabidiol in combination with MCC_09222: synergy", "setting": "[2]; Example 9", "value": "synergistic effect"}, {"measurement": "CBD MIC with MCC_09222 at concentration 16 μg/mL", "setting": "[2]; Example 9, GN_110, listed as CBD", "value": 1, "unit": "µg/mL"}, {"measurement": "MIC", "setting": "[3]; read-out: CBD MIC with MCC_00636 at concentration 0.25 μg/mL, Example 8, GN_038", "value": 2, "unit": "µg/mL"}, {"measurement": "MIC", "setting": "[3]; read-out: CBD MIC with MCC_00636 at concentration 0.5 μg/mL, Example 8, GN_038", "value": 0.000977, "unit": "µg/mL"}, {"measurement": "MIC", "setting": "[3]; read-out: CBD MIC with MCC_00636 at concentration […], Example 8, GN_038", "value": 32, "unit": "µg/mL"}, {"measurement": "MIC", "setting": "[3]; read-out: CBD MIC with MCC_09222 at concentration 8 μg/mL, Example 9, GN_038", "value": 4, "unit": "µg/mL"}, {"measurement": "MIC", "setting": "[3]; read-out: CBD MIC with MCC_09222 at concentration 16 μg/mL, Example 9, GN_038", "value": 2, "unit": "µg/mL"}, {"measurement": "MIC", "setting": "[3]; read-out: CBD MIC with MCC_09222 at concentration 32 μg/mL, Example 9, GN_038", "value": 1, "unit": "µg/mL"}, {"measurement": "MIC", "setting": "[3]; read-out: CBD MIC with MCC_09222 at concentration 64 μg/mL, Example 9, GN_038", "value": 0.000977, "unit": "µg/mL"}, {"measurement": "MIC", "setting": "[3]; read-out: CBD MIC with MCC_09222 at concentration 128 μg/mL, Example 9, GN_038", "value": 0.000977, "unit": "µg/mL"}, {"measurement": "cannabidiol combined with Polymyxin B: synergy", "setting": "[3]; Example 8", "value": "synergy"}, {"measurement": "CBD MIC with MCC_00636 at concentration 0.25 μg/mL", "setting": "[3]; Example 8, GN_038, listed as CBD", "value": 4, "unit": "µg/mL"}, {"measurement": "cannabidiol in combination with MCC_09222: synergy", "setting": "[3]; Example 9", "value": "synergistic effect"}, {"measurement": "CBD MIC with MCC_09222 at concentration 8 μg/mL", "setting": "[3]; [4]", "value": 2, "unit": "µg/mL"}, {"measurement": "CBD MIC with MCC_09222 at concentration 32 μg/mL", "setting": "[3]; [4]", "value": 0.5, "unit": "µg/mL"}]}]}
